Measured values published in patent publication US11065296B2, “Antimicrobial peptide, its analog and use” (City University of Hong Kong, priority 2018, dated 2021).
Peptide text beside a SMILES is read from it.

Assays:
[1] = tested on: Vibrio alginolyticus ATCC 33840; assay type: cell-based
Protocol: (§1) MIC denotes the lowest concentration of an antimicrobial agent that can inhibit the growth of bacteria after overnight incubation.
(§2) Bacteria were grown in their respective media (Table 2 above) overnight at 37° C. or room temperature with constant shaking and then diluted to 10^6 CFU/ml in their respective medium. Stock solutions of peptides at 0.68 mM were prepared in distilled water. Bacteria and peptide were incubated (50 μl: 50 μl) to make the final peptide concentrations (0.68, 3.4, 6.8, 13.7, 34.1, 68.3, 136.5 μM) in a 96-microtitre plate and incubated for 24 h with constant shaking. […] Absorbance at 600 nm was detected every 3 h up to 24 h to obtain the growth curves. The minimal inhibition concentration (MIC) was defined as the lowest concentration of an antimicrobial agent that could inhibit the growth of bacteria after overnight incubation.

E. coli PQ37 = experiment: SOS induction (chromotest); assay type: cell-based; conditions: E. coli PQ37, 120 min; Peptide A 3.4 μM, Piscidin 3.77 μM
Protocol: Results are expressed as 2^(−Delta Delta C (T)). […] Results are expressed as 2^(−Delta Delta C (T)).
E. coli PQ37 (Genotype: Sfi A and Lac Z fusion, lac Z) was cultured in lysogeny broth (LB) that contained 57.2 μM of ampicillin overnight (37° C.) and subcultured through 20 dilutions on another day so that OD600 equals to 0.2-0.4. PQ37 was incubated in 0.3 ml AMP (3.4 μM) or Piscidin ([…], 3.77 μM) for 2 hours and then re-suspended in the same volume of Z-buffer (Na2HPO4.7H2O 16.1 g/l, NaH2PO4.2H2O 6.24 g/L, KCl 0.75 g/L, MgSO4.7H2O 0.246 g/L and b-mercaptoethanol 0.3% (v/v)) for carrying out a β-galactosidase assay (β-ga) and alkaline phosphatase assay (ap), respectively. The bacteria were lysed with 0.1 ml of 0.1% SDS and 0.15 ml of chloroform. For the β-ga assay, the reaction was started by adding 0.6 ml of ortho-Nitrophenyl-β-galactoside (ONPG; Catalog number 34055, ThermoFisher Scientific) for color development and then stopped with the addition of 2 ml of 1 M NaCO3 solution. For ap acsay, the reaction was started by adding 0.6 ml of para-Nitrophenylphosphate (PNPP; Catalog number 34045, ThermoFisher Scientific) for color development which was then terminated by the addition of 1 ml of 2 M HCl solution and 1 ml of 2 M Tri-HCl to restore the colour. The absorbance was read at 420 nm against a blank without bacteria. The induction factor (IF) was calculated as the ratio R(x)/R(0) (R(x)=β-g/ap determined for the tested peptide; R(0)=β-g/ap determined for the LB). Furacin (antibiotic) and Piscidin were chosen as the controls. Each experiment was performed in triplicate.

[2] = tested on: Acinetobacter baumannii ATCC 19606; assay type: cell-based
Protocol: as §1, §2

[3] = tested on: Aeromonas hydrophila ATCC 49140; assay type: cell-based
Protocol: as §1, §2

[4] = tested on: Staphylococcus epidermidis ATCC 12228; assay type: cell-based
Protocol: as §1, §2

CpxA = conditions: E. tarda, 6.8 μM, 1 hr
Protocol: FIG. 9B is a plot showing the relative expression levels of CpxA, CpxR and RpoE in E. tarda upon treatment with Peptide A for 60 min at 6.8 μM. Results are expressed as 2^(−Delta Delta C (T)). FIG. 9C is a plot showing the CpxR gene expression in E. tarda after treatment with Peptide A (6.8 μM), Piscidin (7.5 μM), Ampicillin (143 μM) and Peptide A+Ampicillin (3.4 μM; 71.5 μM) for 1 hour. Results are expressed as 2^(−Delta Delta C (T)). […] Results expressed as log 2 fold change normalized with control group.
E. tarda or E. coli were treated with AMP or antibiotics or not treated as the control at inhibitory or subinhibitory for 1 hr. After that, the total RNA of the cells were collected by using the RNAprep pure cell/bacteria kit (TIANGEN), then reverse-transcribed into cDNA by using the One-Step FastQuant RT reagent kit with gDNase (TIANGEN). 18S ribosomal RNA (18S) was used as reference gene for qPCR normalization. Each group has 6 biological replicates. In brief, quantitative polymerase chain reaction (qPCR) assays were performed by using fluorescent dye powder SYBR Green PCR Master Mix and the ABI 7500 System. Gene-specific primers were designed with Primer-BLAST (NCBI). […] The relative expression levels (fold change) of the tested genes were calculated by using the relative expression based on the 2^(−Delta Delta C (T)) Method.

Streptococcus Faecalis = assay type: cell-based
Protocol: as §1, §2

E. tarda = experiment: Quantitative proteomic analysis of AMP-treated bacteria; assay type: cell-based; conditions: 6.8 μM, 1 hr
Protocol: Bacteria with or without AMP treatment for 1 hr at 6.8 μM were washed and lysed in 8 M of urea for 2 hrs. The lysate was then reduced in 10 mM of dithiothreitol (DTT) in 50 mM of ammonium bicarbonate (30 min at room temperature) and alkylated in 50 mM of […] (IAA) in 50 mM of ammonium bio-carbonate (20 min at room temperature). The samples were diluted 8 times with ammonium bicarbonate (50 mM, pH 8.0) so that the final concentration of urea was 1 M, followed by 2 μg of trypsin (Roche, Mannheim, Germany) for digestion. The mixtures were then incubated overnight at 37° C. and dried in a vacuum centrifuge (Eppendorf Concentrator plus). The peptides were dissolved in 20 μl of 0.1% trifluoroacetic acid (TFA), followed by ZipTip (Millipore, Billerica, Mass., USA) purification that was carried out in accordance with the manufacturer's instructions.
Mass spectrometry (MS) data were collected on an Orbitrap Fusion mass spectrometer coupled on-line with a nanoUPLC EASY-LC-1000 liquid chromatography system (ThermoFisher Scientific™, San Jose, Calif.). The peptides were eluted by using a microcapillary column with 50 cm×75 μm ID, PepMap C18, 2 μm particles (ThermoFisher Scientific™) with 2 to 80% acetonitrile in 0.1% formic acid at a flow rate of ˜350 nL/min for 120 min of gradient. They were ionized through electrospray ionization (positive mode 2.1 kV), and survey scans of peptide precursors from 350 to 1550 m/z were performed at a resolution of 120 K at 200 m/z. Tandem MS was performed by isolation at 1.2 Th with the quadrupole component, fragmentation with normalized collision energy of 35%, and rapid scan MS analysis in the ion trap. The MS2 ion count target was set to 10E4 and the maximum injection time was 250 ms. Only precursors with a charge state of 2-7 were fragmented for the MS2 analysis. The dynamic exclusion duration was set to 60 s with a 10 ppm of low and high mass tolerance around the selected precursor and its isotopes. The instrument was run in data dependent mode by using Orbitrap and an ion trap with […] cycles.
The raw data were analyzed by using Proteome Discoverer (Version 1.4.0.288. Thermo Fisher Scientific). The MS/MS spectra were searched with the Mascot search engine against the NCBI bacteria database 2014 (with 29,574 sequence entries). The peptides were generated from a Lys-C and tryptic digestion and the precursor mass tolerance was set as 25 ppm, and 0.6 Da for fragment mass tolerances. The oxidation of methionine and deamidation of N, Q were set as the dynamic modification, and the carbamidomethylation of cysteine-C as the static modification. The peptide spectral matches (PSMs) were validated by using a percolator based on q-values at a 1% false discovery rate (FDR). For protein identification, a high-confidence database search with a peptide target FDR (strict) of 0.1%, and target FDR (relaxed) 0.5% and ranked 1 peptides were used for peptide filtering. Identified peptides were grouped into individual protein clusters by scaffolding.
Peptide quantitation was carried out by using Progenesis LC-MS (version 4.1, Nonlinear) and as described in Babaei, F. et al. J. Proteome Res. Eversion, (2013). […] Following a statistical analysis, processing was carried out by using transformed “log-like” […] calculations of all the detected features. The total cumulative abundance was calculated by summing the abundance of all peptides that belonged to a respective protein. […]

[5] = tested on: Escherichia coli ATCC 10536; assay type: cell-based
Protocol: as §1, §2

Pseudomonas aeruginosa A = assay type: cell-based
[6] = tested on: Escherichia coli BL21 (DE3); assay type: cell-based
Protocol: as §1, §2

[7] = tested on: Klebsiella pneumoniae (NDM-1) ATCC BAA-2470; assay type: cell-based
Protocol: as §1, §2

## CC[C@H](C)[C@H](N)C(=O)N[C@@H](CCCNC(=N)N)C(=O)N[C@H](C(=O)N[C@H](C(=O)N[C@@H](CC(C)C)C(=O)N[C@@H](CCCNC(=N)N)C(=O)N[C@@H](C)C(=O)N[C@@H](CCC(N)=O)C(=O)NCC(=O)N[C@@H](C)C(=O)N[C@@H](CC(C)C)C(=O)N[C@@H](CCCCN)C(=O)N[C@H](C(=O)O)[C@@H](C)CC)[C@@H](C)CC)[C@@H](C)CC [Peptide A, IRIILRAQGALKI] (H-IRIILRAQGALKI-OH; N-terminus and C-terminus assumed)
[1]
  MICs: 34.1 µM
E. coli PQ37
  SOS response (induction factor): consistent induction of SOS response
[2]
  MICs: 6.8 µM
[3]
  MICs: 13.7 µM
[4]
  MICs: 2.7 µM
CpxA
  CpxA mRNA expression: remains unaffected
Streptococcus Faecalis
  MICs: 34.1 µM
E. tarda
  expression of CPX two component pathway proteins DsbC, PpiA and FkpA: down-regulated
  expression of DegQ, RpsO and YfiO (downstream proteins of the RpoE pathway): up-regulation
  expression of Peptidyl-prolyl isomerase family members PpiA, PpiB, FkpA and SurA: highly suppressed
  expression of proteins involved in outer membrane assembly, peptidoglycan synthesis, and metal ion binding: induced
  proteins differentially expressed (at least one-fold difference) of 251 high confidence proteins: 74
[5]
  MICs: 3.4 µM
Pseudomonas aeruginosa A
  MICs: 34.1 µM
[6]
  MICs: 5.5 µM
[7]
  MICs: 21.8 µM
